Consider 15 molecules from ChEMBL document CHEMBL1255543, “On resin amino acid side chain attachment strategy for the head to tail synthesis of new glutamine containing gramicidin-S analogs and their antimicrobial activity” (2010).

For orientation: MIC means the least concentration at which growth counts as inhibited.

Values after ≈ are worked out from the molar mass of the structure shown. Peptide text beside a SMILES is read from it.

Holding throughout (type): functional
The subject of one assay is Enterococcus faecalis. The assay can be described thus: Antimicrobial activity against Enterococcus faecalis ATCC 51299 by broth microdilution assay. On the technique in general: Broth dilution looks for growth in wells or tubes with falling amounts of substance.
The test system of the next assay is Escherichia coli. Nature of the assay: Antimicrobial activity against Escherichia coli ATCC 25922 by broth microdilution assay.
A further assay has as its system Streptococcus pyogenes. Nature of the assay: Antimicrobial activity against Streptococcus pyogenes by broth microdilution assay.
In a further assay the test system is Staphylococcus aureus. Nature of the assay: Antimicrobial activity against methicillin-resistant Staphylococcus aureus ATCC 33591 by broth microdilution assay.
For the next assay, the system named is Pseudomonas aeruginosa. The assay can be described thus: Antimicrobial activity against Pseudomonas aeruginosa ATCC 27853 by broth microdilution assay.
The next assay concerns Streptococcus agalactiae. The assay can be described thus: Antimicrobial activity against Streptococcus agalactiae COH1 by broth microdilution assay.
Setting [1] is: Streptococcus pyogenes, read-out: MIC.

As to `CC(C)C[C@@H]1NC(=O)[C@H](CCC(N)=O)NC(=O)[C@H](C(C)C)NC(=O)[C@@H]2CCCN2C(=O)[C@@H](Cc2ccc(O)cc2)NC(=O)[C@H](CC(C)C)NC(=O)[C@H](CCC(N)=O)NC(=O)[C@H](C(C)C)NC(=O)[C@@H]2CCCN2C(=O)[C@@H](Cc2ccc(O)cc2)NC1=O`, the MIC with Enterococcus faecalis, against Escherichia coli, in the assay on Streptococcus pyogenes (setting [1]), in the assay on Staphylococcus aureus, in the assay with Pseudomonas aeruginosa and with Streptococcus agalactiae was > 100 µg/mL throughout.
`CC(C)C[C@@H]1NC(=O)[C@H](CCC(N)=O)NC(=O)[C@H](C(C)C)NC(=O)[C@@H]2CCCN2C(=O)[C@@H](Cc2c[nH]c3ccccc23)NC(=O)[C@H](CC(C)C)NC(=O)[C@H](CCC(N)=O)NC(=O)[C@H](C(C)C)NC(=O)[C@@H]2CCCN2C(=O)[C@@H](Cc2c[nH]c3ccccc23)NC1=O`: the MIC in the assay with Enterococcus faecalis, in the assay on Escherichia coli, in the assay on Streptococcus pyogenes (setting [1]), in the assay on Staphylococcus aureus, with Pseudomonas aeruginosa and with Streptococcus agalactiae was > 100 µg/mL throughout.
As for `CC(C)C[C@@H]1NC(=O)[C@H](CCC(N)=O)NC(=O)[C@H](C(C)C)NC(=O)[C@@H]2CCCN2C(=O)[C@@H](c2ccccc2)NC(=O)[C@H](CC(C)C)NC(=O)[C@H](CCC(N)=O)NC(=O)[C@H](C(C)C)NC(=O)[C@@H]2CCCN2C(=O)[C@@H](c2ccccc2)NC1=O`, the MIC in the assay on Enterococcus faecalis was > 100 µg/mL; against Escherichia coli, > 100 µg/mL; in the assay with Streptococcus pyogenes (setting [1]), 10 µg/mL (≈ 8.76 µM); against Staphylococcus aureus it was > 100 µg/mL; with Pseudomonas aeruginosa it was > 100 µg/mL; with Streptococcus agalactiae, > 100 µg/mL.
Regarding `CC(C)C[C@@H]1NC(=O)[C@H](CCC(N)=O)NC(=O)[C@H](C(C)C)NC(=O)[C@@H]2CCCN2C(=O)[C@@H](Cc2cccs2)NC(=O)[C@H](CC(C)C)NC(=O)[C@H](CCC(N)=O)NC(=O)[C@H](C(C)C)NC(=O)[C@@H]2CCCN2C(=O)[C@@H](Cc2cccs2)NC1=O`, the MIC against Enterococcus faecalis, in the assay with Escherichia coli, with Streptococcus pyogenes (setting [1]), against Staphylococcus aureus, against Pseudomonas aeruginosa and with Streptococcus agalactiae was > 100 µg/mL in each case.
As for `CC(C)C[C@@H]1NC(=O)[C@H](CCC(N)=O)NC(=O)[C@H](C(C)C)NC(=O)[C@@H]2CCCN2C(=O)[C@@H](Cc2ccc(F)cc2)NC(=O)[C@H](CC(C)C)NC(=O)[C@H](CCC(N)=O)NC(=O)[C@H](C(C)C)NC(=O)[C@@H]2CCCN2C(=O)[C@@H](Cc2ccc(F)cc2)NC1=O`, the MIC was > 100 µg/mL against Enterococcus faecalis; > 100 µg/mL in the assay with Escherichia coli; 10 µg/mL (≈ 8.3 µM) with Streptococcus pyogenes (setting [1]); > 100 µg/mL in the assay with Staphylococcus aureus; > 100 µg/mL in the assay with Pseudomonas aeruginosa; > 100 µg/mL against Streptococcus agalactiae.
As for `CC(C)C[C@@H]1NC(=O)[C@H](CCC(N)=O)NC(=O)[C@H](C(C)C)NC(=O)[C@@H]2CCCN2C(=O)[C@@H](Cc2ccc(I)cc2)NC(=O)[C@H](CC(C)C)NC(=O)[C@H](CCC(N)=O)NC(=O)[C@H](C(C)C)NC(=O)[C@@H]2CCCN2C(=O)[C@@H](Cc2ccc(I)cc2)NC1=O`, the MIC is > 100 µg/mL with Enterococcus faecalis; > 100 µg/mL against Escherichia coli; 10 µg/mL (≈ 7.04 µM) in the assay on Streptococcus pyogenes (setting [1]); > 100 µg/mL in the assay with Staphylococcus aureus; > 100 µg/mL in the assay on Pseudomonas aeruginosa; > 100 µg/mL against Streptococcus agalactiae.
As to `CC(C)C[C@@H]1NC(=O)[C@H](CCC(N)=O)NC(=O)[C@H](CC(C)C)NC(=O)[C@@H]2CCCN2C(=O)[C@H](Cc2ccccc2)NC(=O)[C@H](CC(C)C)NC(=O)[C@H](CCC(N)=O)NC(=O)[C@H](CC(C)C)NC(=O)[C@@H]2CCCN2C(=O)[C@H](Cc2ccccc2)NC1=O` (cyclo(FPLQLFPLQL)), the MIC in the assay with Enterococcus faecalis was > 100 µg/mL; in the assay with Escherichia coli, > 100 µg/mL; in the assay with Streptococcus pyogenes (setting [1]), 10 µg/mL (≈ 8.35 µM); against Staphylococcus aureus, > 100 µg/mL; with Pseudomonas aeruginosa, > 100 µg/mL; against Streptococcus agalactiae it was > 100 µg/mL.
With `CC(C)C[C@@H]1NC(=O)[C@H](CCC(N)=O)NC(=O)[C@H](CC(C)C)NC(=O)[C@@H]2CCCN2C(=O)[C@H](Cc2ccccc2)NC(=O)[C@H](C(C)C)NC(=O)[C@H](CCC(N)=O)NC(=O)[C@H](CC(C)C)NC(=O)[C@@H]2CCCN2C(=O)[C@H](Cc2ccccc2)NC1=O` (cyclo(FPLQLFPLQV)), the minimal inhibitory concentration (MIC) against Enterococcus faecalis is > 100 µg/mL; in the assay with Escherichia coli it was > 100 µg/mL; in the assay with Streptococcus pyogenes (setting [1]), 10 µg/mL (≈ 8.45 µM); in the assay with Staphylococcus aureus, > 100 µg/mL; with Pseudomonas aeruginosa it was > 100 µg/mL; against Streptococcus agalactiae, 10 µg/mL (≈ 8.45 µM).
Consider `CC(C)C[C@@H]1NC(=O)[C@H](CCC(N)=O)NC(=O)[C@H](CC(C)C)NC(=O)[C@@H]2CCCN2C(=O)[C@H](Cc2ccccc2)NC(=O)[C@H](C(C)C)NC(=O)[C@H](CCC(N)=O)NC(=O)[C@H](C(C)C)NC(=O)[C@@H]2CCCN2C(=O)[C@H](Cc2ccccc2)NC1=O` (cyclo(FPLQLFPVQV)), for which the MIC in the assay on Enterococcus faecalis is > 100 µg/mL; in the assay on Escherichia coli it was > 100 µg/mL; in the assay on Streptococcus pyogenes (setting [1]) it was 10 µg/mL (≈ 8.55 µM); with Staphylococcus aureus, > 100 µg/mL; against Pseudomonas aeruginosa, > 100 µg/mL; in the assay on Streptococcus agalactiae, > 100 µg/mL.
For the molecule `CC(C)C[C@@H]1NC(=O)[C@H](CCC(N)=O)NC(=O)[C@H](C(C)C)NC(=O)[C@@H]2CCCN2C(=O)[C@H](Cc2ccccc2)NC(=O)[C@H](C(C)C)NC(=O)[C@H](CCC(N)=O)NC(=O)[C@H](CC(C)C)NC(=O)[C@@H]2CCCN2C(=O)[C@H](Cc2ccccc2)NC1=O` (cyclo(FPLQVFPVQL)), the MIC in the assay on Enterococcus faecalis is > 100 µg/mL; in the assay on Escherichia coli, > 100 µg/mL; in the assay with Streptococcus pyogenes (setting [1]) it was 10 µg/mL (≈ 8.55 µM); against Staphylococcus aureus, > 100 µg/mL; against Pseudomonas aeruginosa it was > 100 µg/mL; in the assay on Streptococcus agalactiae it was > 100 µg/mL.
As to `CC(C)C[C@@H]1NC(=O)[C@H](CCC(N)=O)NC(=O)[C@H](C(C)C)NC(=O)[C@@H]2CCCN2C(=O)[C@H](Cc2ccccc2)NC(=O)[C@H](CC(C)C)NC(=O)[C@H](CCC(N)=O)NC(=O)[C@H](C(C)C)NC(=O)[C@@H]2CCCN2C(=O)[C@H](Cc2ccccc2)NC1=O` (cyclo(FPVQLFPVQL)), the MIC was > 100 µg/mL in the assay on Enterococcus faecalis; > 100 µg/mL in the assay with Escherichia coli; 10 µg/mL (≈ 8.55 µM) in the assay on Streptococcus pyogenes (setting [1]); > 100 µg/mL against Staphylococcus aureus; > 100 µg/mL against Pseudomonas aeruginosa; > 100 µg/mL against Streptococcus agalactiae.
On to `CC(C)C[C@@H]1NC(=O)[C@H](CCC(N)=O)NC(=O)[C@H](C(C)C)NC(=O)[C@@H]2CCCN2C(=O)[C@H](Cc2ccccc2)NC(=O)[C@H](C(C)C)NC(=O)[C@H](CCC(N)=O)NC(=O)[C@H](C(C)C)NC(=O)[C@@H]2CCCN2C(=O)[C@H](Cc2ccccc2)NC1=O` (cyclo(FPVQLFPVQV)), for which the MIC in the assay with Enterococcus faecalis was > 100 µg/mL; with Escherichia coli it was > 100 µg/mL; with Streptococcus pyogenes (setting [1]), 10 µg/mL (≈ 8.65 µM); with Staphylococcus aureus, > 100 µg/mL; in the assay on Pseudomonas aeruginosa, > 100 µg/mL; in the assay on Streptococcus agalactiae, > 100 µg/mL.
For `CC(C)[C@@H]1NC(=O)[C@H](CCC(N)=O)NC(=O)[C@H](C(C)C)NC(=O)[C@@H]2CCCN2C(=O)[C@H](Cc2ccccc2)NC(=O)[C@H](C(C)C)NC(=O)[C@H](CCC(N)=O)NC(=O)[C@H](C(C)C)NC(=O)[C@@H]2CCCN2C(=O)[C@H](Cc2ccccc2)NC1=O` (cyclo(FPVQVFPVQV)), the MIC in the assay on Enterococcus faecalis, against Escherichia coli, in the assay with Streptococcus pyogenes (setting [1]), with Staphylococcus aureus, with Pseudomonas aeruginosa and against Streptococcus agalactiae was > 100 µg/mL in each case.
Turning to `CC(C)C[C@@H]1NC(=O)[C@@H]2CCCN2C(=O)[C@H](Cc2ccccc2)NC(=O)[C@H](C(C)C)NC(=O)[C@H](CCC(N)=O)NC(=O)[C@H](C(C)C)NC(=O)[C@@H]2CCCN2C(=O)[C@H](Cc2ccccc2)NC(=O)[C@H](C(C)C)NC(=O)[C@H](CCC(N)=O)NC1=O` (stereo in doubt; form 1), the minimal inhibitory concentration (MIC) in the assay with Enterococcus faecalis was > 100 µg/mL; in the assay with Escherichia coli it was > 100 µg/mL; in the assay with Streptococcus pyogenes, >100 µg/mL; in the assay on Staphylococcus aureus, > 100 µg/mL; against Pseudomonas aeruginosa, > 100 µg/mL; with Streptococcus agalactiae, > 100 µg/mL.
With `CC(C)C[C@@H]1NC(=O)[C@@H]2CCCN2C(=O)[C@H](Cc2ccccc2)NC(=O)[C@H](C(C)C)NC(=O)[C@H](CCC(N)=O)NC(=O)[C@H](C(C)C)NC(=O)[C@@H]2CCCN2C(=O)[C@H](Cc2ccccc2)NC(=O)[C@H](C(C)C)NC(=O)[C@H](CCC(N)=O)NC1=O` (stereo in doubt; form 2), in the assay on Streptococcus pyogenes, the MIC turned out to be 10 µg/mL (≈ 8.65 µM).
